Data as given in ChEMBL document CHEMBL3991601, “The target landscape of clinical kinase drugs” (Science, 2017).
Activity calls are given as the source filed them.

Tests used:
[1] = biological target: Dual specificity protein kinase CLK4 (Homo sapiens, UniProt Q9HAZ1)
[2] = biological target: T1, MAP/microtubule affinity-regulating kinase 4 (Homo sapiens, UniProt Q96L34)
T1 sequence (Q96L34 whole entry): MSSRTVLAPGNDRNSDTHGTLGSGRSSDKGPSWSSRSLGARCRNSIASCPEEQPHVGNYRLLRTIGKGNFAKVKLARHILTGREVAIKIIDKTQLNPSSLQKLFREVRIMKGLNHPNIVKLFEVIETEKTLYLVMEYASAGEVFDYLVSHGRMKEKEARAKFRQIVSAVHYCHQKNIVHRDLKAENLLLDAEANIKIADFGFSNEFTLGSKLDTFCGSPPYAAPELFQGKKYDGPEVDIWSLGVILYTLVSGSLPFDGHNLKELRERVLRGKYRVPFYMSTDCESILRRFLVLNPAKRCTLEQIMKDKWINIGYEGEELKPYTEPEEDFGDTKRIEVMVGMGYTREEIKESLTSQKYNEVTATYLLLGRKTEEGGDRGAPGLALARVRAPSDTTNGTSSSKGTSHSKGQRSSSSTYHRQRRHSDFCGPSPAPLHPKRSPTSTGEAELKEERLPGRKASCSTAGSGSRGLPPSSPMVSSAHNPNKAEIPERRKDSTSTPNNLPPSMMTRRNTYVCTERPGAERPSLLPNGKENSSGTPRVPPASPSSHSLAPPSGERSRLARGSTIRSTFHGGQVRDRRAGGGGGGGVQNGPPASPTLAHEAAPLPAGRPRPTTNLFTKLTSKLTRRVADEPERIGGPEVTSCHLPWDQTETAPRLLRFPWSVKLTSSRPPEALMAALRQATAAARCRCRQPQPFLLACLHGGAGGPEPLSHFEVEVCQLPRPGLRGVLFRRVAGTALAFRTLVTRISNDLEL

[3] = biological target: Epidermal growth factor receptor (Homo sapiens, UniProt P00533)
[4] = biological target: Dual specificity testis-specific protein kinase 1 (Homo sapiens, UniProt Q15569)
[5] = biological target: T2, Isoleucine--tRNA ligase, mitochondrial (Homo sapiens, UniProt Q9NSE4)
T2 sequence (Q9NSE4 whole entry): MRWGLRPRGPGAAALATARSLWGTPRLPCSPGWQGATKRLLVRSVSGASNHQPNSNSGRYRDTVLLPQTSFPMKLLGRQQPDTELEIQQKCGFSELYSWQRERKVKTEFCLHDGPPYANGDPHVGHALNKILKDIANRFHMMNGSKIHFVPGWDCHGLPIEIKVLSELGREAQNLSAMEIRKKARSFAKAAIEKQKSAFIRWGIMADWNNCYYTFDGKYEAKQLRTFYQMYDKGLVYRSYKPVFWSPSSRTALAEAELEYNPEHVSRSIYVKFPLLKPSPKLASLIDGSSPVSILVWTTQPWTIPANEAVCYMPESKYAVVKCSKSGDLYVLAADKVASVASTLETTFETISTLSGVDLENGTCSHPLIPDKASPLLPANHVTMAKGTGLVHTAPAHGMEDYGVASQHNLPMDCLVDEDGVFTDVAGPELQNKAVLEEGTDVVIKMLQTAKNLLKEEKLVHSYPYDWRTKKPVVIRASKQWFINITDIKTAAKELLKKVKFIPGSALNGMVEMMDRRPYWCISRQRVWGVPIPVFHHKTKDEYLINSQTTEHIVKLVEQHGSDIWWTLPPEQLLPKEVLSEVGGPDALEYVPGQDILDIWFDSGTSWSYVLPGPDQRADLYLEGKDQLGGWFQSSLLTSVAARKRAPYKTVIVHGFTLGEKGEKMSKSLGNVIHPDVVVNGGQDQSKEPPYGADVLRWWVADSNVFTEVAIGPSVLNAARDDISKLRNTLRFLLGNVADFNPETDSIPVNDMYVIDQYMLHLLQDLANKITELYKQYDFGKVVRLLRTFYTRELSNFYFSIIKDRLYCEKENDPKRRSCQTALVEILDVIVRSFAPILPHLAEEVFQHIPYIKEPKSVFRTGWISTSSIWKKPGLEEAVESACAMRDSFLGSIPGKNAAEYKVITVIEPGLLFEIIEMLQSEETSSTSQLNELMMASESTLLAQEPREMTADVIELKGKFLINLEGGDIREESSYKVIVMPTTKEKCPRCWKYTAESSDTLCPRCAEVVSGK

[6] = biological target: Dual specificity protein kinase CLK3 (Homo sapiens, UniProt P49761); format: subcellular, K-562, COLO 205, SK-N-BE(2) and MV-4-11, Cell lysate; conditions: read-out: Kd apparent
[7] = biological target: Hepatocyte growth factor receptor (Homo sapiens, UniProt P08581)
[8] = biological target: Protein kinase C theta type (Homo sapiens, UniProt Q04759)
[9] = biological target: Choline-phosphate cytidylyltransferase A (Homo sapiens, UniProt P49585)
[10] = biological target: Dual specificity mitogen-activated protein kinase kinase 1 (Homo sapiens, UniProt Q02750)
[11] = biological target: Uncharacterized aarF domain-containing protein kinase 5 (Homo sapiens, UniProt Q3MIX3)
[12] = biological target: Rho-associated protein kinase 1 (Homo sapiens, UniProt Q13464)
Myosin-10 = Myosin-10 (Homo sapiens, UniProt P35580)
[13] = biological target: Glycogen synthase kinase-3 beta (Homo sapiens, UniProt P49841)
[14] = biological target: Dual specificity testis-specific protein kinase 2 (Homo sapiens, UniProt Q96S53)
[15] = biological target: PAS domain-containing serine/threonine-protein kinase (Homo sapiens, UniProt Q96RG2)
[16] = biological target: Dual specificity protein kinase CLK2 (Homo sapiens, UniProt P49760)
[17] = biological target: Serine/threonine-protein kinase Nek7 (Homo sapiens, UniProt Q8TDX7)
[18] = biological target: Membrane-associated progesterone receptor component 1 (Homo sapiens, UniProt O00264)
Also: in the data inactive means no Kd found up to 30 µM.

Sequence of PAS domain-containing serine/threonine-protein kinase (Q96RG2 whole entry, the tested form may be a part): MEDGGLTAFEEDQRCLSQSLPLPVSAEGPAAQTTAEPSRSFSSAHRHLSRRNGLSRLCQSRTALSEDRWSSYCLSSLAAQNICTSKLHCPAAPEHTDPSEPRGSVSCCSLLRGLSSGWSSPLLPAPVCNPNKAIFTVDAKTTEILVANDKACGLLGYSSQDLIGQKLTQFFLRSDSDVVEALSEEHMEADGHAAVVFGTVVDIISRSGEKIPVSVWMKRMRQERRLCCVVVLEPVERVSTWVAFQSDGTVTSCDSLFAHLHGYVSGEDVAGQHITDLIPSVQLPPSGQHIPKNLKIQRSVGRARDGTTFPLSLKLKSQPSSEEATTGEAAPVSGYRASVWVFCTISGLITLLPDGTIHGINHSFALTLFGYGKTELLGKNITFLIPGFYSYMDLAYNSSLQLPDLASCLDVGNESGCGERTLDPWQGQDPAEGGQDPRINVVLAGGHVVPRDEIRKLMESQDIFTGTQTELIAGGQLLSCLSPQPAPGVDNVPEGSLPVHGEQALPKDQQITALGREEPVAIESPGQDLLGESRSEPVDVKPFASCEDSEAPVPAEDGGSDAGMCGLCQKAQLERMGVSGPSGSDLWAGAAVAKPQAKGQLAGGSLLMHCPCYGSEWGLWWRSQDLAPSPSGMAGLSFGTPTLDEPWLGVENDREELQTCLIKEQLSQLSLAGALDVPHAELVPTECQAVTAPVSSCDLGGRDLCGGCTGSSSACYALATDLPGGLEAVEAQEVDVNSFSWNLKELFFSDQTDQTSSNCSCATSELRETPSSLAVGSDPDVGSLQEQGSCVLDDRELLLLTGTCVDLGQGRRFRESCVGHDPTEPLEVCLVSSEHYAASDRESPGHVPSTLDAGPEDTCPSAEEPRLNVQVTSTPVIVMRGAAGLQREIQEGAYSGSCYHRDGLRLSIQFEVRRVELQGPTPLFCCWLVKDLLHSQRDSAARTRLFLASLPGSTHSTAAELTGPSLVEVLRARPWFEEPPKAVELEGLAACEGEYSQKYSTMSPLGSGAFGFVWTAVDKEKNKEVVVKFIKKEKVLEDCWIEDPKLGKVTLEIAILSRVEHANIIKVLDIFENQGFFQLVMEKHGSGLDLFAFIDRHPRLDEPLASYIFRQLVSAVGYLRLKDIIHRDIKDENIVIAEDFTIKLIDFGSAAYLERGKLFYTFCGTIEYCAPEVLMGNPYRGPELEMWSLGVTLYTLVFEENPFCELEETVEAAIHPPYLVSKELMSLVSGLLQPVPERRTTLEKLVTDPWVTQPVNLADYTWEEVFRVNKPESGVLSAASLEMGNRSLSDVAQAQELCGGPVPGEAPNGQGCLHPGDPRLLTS
Sequence of Choline-phosphate cytidylyltransferase A (P49585 whole entry): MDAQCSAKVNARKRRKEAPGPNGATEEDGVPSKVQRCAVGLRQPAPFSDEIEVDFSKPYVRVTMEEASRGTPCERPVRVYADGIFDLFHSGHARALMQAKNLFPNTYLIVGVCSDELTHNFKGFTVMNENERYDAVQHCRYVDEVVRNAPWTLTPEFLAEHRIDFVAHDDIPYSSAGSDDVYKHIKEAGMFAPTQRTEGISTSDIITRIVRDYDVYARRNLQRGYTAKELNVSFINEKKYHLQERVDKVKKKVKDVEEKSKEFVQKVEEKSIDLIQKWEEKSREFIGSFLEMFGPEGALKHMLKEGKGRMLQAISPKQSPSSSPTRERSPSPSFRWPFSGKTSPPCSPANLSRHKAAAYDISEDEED
Sequence of Epidermal growth factor receptor (P00533 whole entry): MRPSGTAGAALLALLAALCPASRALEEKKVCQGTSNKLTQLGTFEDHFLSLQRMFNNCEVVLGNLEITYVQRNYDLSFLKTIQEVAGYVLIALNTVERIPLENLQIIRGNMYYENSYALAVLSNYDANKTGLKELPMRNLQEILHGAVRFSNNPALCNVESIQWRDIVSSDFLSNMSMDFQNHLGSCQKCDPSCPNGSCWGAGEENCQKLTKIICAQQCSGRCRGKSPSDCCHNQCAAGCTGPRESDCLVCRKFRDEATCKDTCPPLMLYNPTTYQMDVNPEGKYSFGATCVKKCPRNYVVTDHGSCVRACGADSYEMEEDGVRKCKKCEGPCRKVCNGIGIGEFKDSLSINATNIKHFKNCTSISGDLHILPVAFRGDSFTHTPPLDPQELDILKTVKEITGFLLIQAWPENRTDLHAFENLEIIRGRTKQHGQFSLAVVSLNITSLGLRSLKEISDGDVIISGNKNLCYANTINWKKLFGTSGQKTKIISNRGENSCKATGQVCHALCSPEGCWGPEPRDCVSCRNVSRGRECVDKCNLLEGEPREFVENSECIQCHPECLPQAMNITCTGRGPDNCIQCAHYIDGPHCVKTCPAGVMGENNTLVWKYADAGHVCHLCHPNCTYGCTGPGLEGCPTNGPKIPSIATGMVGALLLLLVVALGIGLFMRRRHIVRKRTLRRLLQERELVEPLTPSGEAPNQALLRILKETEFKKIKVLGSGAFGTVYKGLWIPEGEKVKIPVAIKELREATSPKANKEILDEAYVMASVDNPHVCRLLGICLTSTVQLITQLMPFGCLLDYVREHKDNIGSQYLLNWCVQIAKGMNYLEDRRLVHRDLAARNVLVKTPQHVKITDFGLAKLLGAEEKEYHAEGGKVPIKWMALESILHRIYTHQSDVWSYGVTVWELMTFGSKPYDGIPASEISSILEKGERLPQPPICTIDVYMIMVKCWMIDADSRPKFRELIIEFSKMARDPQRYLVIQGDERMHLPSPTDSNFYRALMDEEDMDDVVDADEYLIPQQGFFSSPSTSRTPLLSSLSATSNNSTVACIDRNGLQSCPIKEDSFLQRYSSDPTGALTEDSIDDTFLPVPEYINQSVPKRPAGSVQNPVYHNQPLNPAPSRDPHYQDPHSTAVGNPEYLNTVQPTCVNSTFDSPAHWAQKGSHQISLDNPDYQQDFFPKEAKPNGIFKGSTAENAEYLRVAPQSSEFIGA
Sequence of Serine/threonine-protein kinase Nek7 (Q8TDX7 whole entry): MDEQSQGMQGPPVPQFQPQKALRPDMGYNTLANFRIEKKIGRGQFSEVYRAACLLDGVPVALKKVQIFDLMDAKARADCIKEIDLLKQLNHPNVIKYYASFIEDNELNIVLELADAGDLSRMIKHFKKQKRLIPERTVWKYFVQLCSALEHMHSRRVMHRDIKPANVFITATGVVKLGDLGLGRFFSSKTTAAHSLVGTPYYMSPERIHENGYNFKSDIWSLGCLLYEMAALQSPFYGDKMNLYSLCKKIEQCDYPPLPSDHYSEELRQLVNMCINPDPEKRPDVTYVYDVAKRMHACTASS
Sequence of Dual specificity protein kinase CLK2 (P49760 whole entry): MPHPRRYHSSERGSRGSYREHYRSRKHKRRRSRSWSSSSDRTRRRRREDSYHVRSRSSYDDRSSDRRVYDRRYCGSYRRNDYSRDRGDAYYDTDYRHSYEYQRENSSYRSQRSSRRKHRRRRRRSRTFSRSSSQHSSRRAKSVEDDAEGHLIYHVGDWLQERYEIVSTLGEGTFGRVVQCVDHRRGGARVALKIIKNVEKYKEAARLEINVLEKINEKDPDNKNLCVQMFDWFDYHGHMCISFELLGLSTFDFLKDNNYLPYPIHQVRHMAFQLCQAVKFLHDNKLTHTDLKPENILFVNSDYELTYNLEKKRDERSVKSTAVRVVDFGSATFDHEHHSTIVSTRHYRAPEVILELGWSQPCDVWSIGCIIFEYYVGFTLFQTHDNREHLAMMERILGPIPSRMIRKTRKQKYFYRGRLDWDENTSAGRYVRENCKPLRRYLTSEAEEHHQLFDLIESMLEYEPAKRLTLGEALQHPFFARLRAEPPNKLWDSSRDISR
Sequence of Membrane-associated progesterone receptor component 1 (O00264 whole entry): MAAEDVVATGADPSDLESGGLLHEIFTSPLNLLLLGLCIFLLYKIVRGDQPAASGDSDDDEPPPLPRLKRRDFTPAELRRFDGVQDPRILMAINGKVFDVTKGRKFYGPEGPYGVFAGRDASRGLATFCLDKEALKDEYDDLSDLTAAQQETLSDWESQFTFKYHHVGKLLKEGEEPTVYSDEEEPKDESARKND
Sequence of Dual specificity protein kinase CLK3 (P49761 whole entry): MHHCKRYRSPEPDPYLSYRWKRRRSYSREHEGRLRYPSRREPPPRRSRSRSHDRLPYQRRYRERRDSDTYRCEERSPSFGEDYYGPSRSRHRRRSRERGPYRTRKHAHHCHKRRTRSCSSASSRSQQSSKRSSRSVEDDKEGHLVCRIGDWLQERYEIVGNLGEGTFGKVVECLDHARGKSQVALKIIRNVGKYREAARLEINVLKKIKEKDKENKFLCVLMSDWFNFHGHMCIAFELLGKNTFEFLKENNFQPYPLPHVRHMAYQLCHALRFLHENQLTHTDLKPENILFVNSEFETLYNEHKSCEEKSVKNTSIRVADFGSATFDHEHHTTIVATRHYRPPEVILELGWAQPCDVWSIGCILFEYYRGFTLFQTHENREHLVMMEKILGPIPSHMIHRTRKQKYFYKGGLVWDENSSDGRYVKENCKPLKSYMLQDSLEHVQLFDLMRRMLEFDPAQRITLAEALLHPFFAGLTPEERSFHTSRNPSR
Sequence of Dual specificity testis-specific protein kinase 2 (Q96S53 whole entry, the tested form may be a part): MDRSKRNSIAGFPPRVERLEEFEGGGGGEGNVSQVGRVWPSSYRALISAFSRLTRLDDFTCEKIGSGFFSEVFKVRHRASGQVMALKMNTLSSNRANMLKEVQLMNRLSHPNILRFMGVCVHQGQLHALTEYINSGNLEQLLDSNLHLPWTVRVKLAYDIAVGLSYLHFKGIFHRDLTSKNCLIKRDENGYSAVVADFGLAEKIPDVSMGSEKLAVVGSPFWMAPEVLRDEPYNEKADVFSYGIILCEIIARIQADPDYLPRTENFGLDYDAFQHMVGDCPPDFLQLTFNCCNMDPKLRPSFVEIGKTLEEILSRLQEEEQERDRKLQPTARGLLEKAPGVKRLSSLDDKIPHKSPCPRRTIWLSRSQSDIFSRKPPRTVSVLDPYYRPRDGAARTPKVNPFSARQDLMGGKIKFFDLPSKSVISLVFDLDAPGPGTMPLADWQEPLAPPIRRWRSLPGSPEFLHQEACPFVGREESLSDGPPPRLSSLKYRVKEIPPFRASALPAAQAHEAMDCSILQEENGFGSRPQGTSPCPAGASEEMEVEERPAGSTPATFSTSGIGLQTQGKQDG

Structure (SMILES) | Kd [1] | Kd [2] | Kd [3] | Kd [4] | Kd [5] | Kd [6] | Kd [7] | Kd [8] | Kd [9] | Kd [10] | Kd [11] | Kd [12] | Kd (Myosin-10) | Kd [13] | Kd [14] | Kd [15] | Kd [16] | Kd [17] | Kd [18]
CCN1CCN(Cc2ccc(Nc3ncc(F)c(-c4cc(F)c5nc(C)n(C(C)C)c5c4)n3)nc2)CC1 [ABEMACICLIB] | 0.013 µM | > 30 µM (inactive) | > 30 µM (inactive) | > 30 µM (inactive) | > 30 µM (inactive) | > 30 µM (inactive) | > 30 µM (inactive) | > 30 µM (inactive) | > 30 µM (inactive) | > 30 µM (inactive) | > 30 µM (inactive) | > 30 µM (inactive) |  |  |  |  |  |  | 
CCc1cc2c(cc1N1CCC(N3CCOCC3)CC1)C(C)(C)c1[nH]c3cc(C#N)ccc3c1C2=O [ALECTINIB] | > 30 µM (inactive) | > 30 µM (inactive) |  | > 30 µM (inactive) |  | 1.4 µM (active) | > 30 µM (inactive) | > 30 µM (inactive) | > 30 µM (inactive) | > 30 µM (inactive) | > 30 µM (inactive) | > 30 µM (inactive) | > 30 µM (inactive) | > 30 µM (inactive) | > 30 µM (inactive) | > 30 µM (inactive) | 2.32 µM (active) |  | 
S=C(NCc1ccc2c(c1)OCO2)N1CCN(c2ncnc3c2oc2ccccc23)CC1 [AMUVATINIB] | > 30 µM (inactive) | > 30 µM (inactive) | > 30 µM (inactive) |  | > 30 µM (inactive) |  | > 30 µM (inactive) | > 30 µM (inactive) | > 30 µM (inactive) | > 30 µM (inactive) |  | > 30 µM (inactive) | > 30 µM (inactive) | > 30 µM (inactive) |  | > 30 µM (inactive) | > 30 µM (inactive) | > 30 µM (inactive) | > 30 µM (inactive)
COc1ccc(-c2ccc3ncc4c(c3c2)n(-c2ccc(N3CCNCC3)c(C(F)(F)F)c2)c(=O)n4C)cn1 [BGT-226 FREE BASE] |  | > 30 µM (inactive) | > 30 µM (inactive) | > 30 µM (inactive) | > 30 µM (inactive) |  | > 30 µM (inactive) | > 30 µM (inactive) | > 30 µM (inactive) | > 30 µM (inactive) | > 30 µM (inactive) | > 30 µM (inactive) | > 30 µM (inactive) | > 30 µM (inactive) | > 30 µM (inactive) | > 30 µM (inactive) | > 30 µM (inactive) | > 30 µM (inactive) | > 30 µM (inactive)
COc1cc2c(Oc3ccc4[nH]c(C)cc4c3F)ncnc2cc1OCCCN1CCCC1 [CEDIRANIB] |  |  |  |  | > 30 µM (inactive) |  |  |  | > 30 µM (inactive) |  | > 30 µM (inactive) |  | > 30 µM (inactive) |  | > 30 µM (inactive) | > 30 µM (inactive) |  |  | 
Cn1c(=O)n(-c2ccc(C(C)(C)C#N)cc2)c2c3cc(-c4cnc5ccccc5c4)ccc3ncc21 [DACTOLISIB] |  | > 30 µM (inactive) | > 30 µM (inactive) | > 30 µM (inactive) | > 30 µM (inactive) |  |  |  | > 30 µM (inactive) |  | > 30 µM (inactive) |  | > 30 µM (inactive) |  |  |  |  |  | > 30 µM (inactive)
C[C@]1(O)C[C@@H](c2nc(-c3ccc4ccc(-c5ccccc5)nc4c3)c3c(N)nccn32)C1 [LINSITINIB] |  | > 30 µM (inactive) |  | > 30 µM (inactive) |  | > 30 µM (inactive) |  | > 30 µM (inactive) | > 30 µM (inactive) |  |  |  | > 30 µM (inactive) |  | > 30 µM (inactive) | > 30 µM (inactive) |  |  | > 30 µM (inactive)
Cc1ccc(C(=O)Nc2ccc(Oc3cc4cnn(C)c4cc3-c3cn[nH]c3)c(F)c2)c(=O)n1-c1ccc(F)cc1 [MERESTINIB] | > 30 µM (inactive) | > 30 µM (inactive) | > 30 µM (inactive) | > 30 µM (inactive) | > 30 µM (inactive) | > 30 µM (inactive) |  | > 30 µM (inactive) | > 30 µM (inactive) | > 30 µM (inactive) | > 30 µM (inactive) | > 30 µM (inactive) | > 30 µM (inactive) | > 30 µM (inactive) |  | > 30 µM (inactive) | > 30 µM (inactive) |  | > 30 µM (inactive)
CC(C)CC(=O)Nc1[nH]nc2c1CN(C(=O)C1CCN(C)CC1)C2(C)C [PHA-793887] |  | > 30 µM (inactive) |  |  | > 30 µM (inactive) |  |  | 2.34 µM (active) | > 30 µM (inactive) | > 30 µM (inactive) | > 30 µM (inactive) |  | > 30 µM (inactive) | 0.012 µM (active) |  | > 30 µM (inactive) | 0.007 µM | > 30 µM (inactive) | > 30 µM (inactive)
O=C(NC[C@H](O)CO)c1ccncc1Nc1ccc(I)cc1F [PIMASERTIB] | > 30 µM (inactive) | > 30 µM (inactive) | > 30 µM (inactive) | > 30 µM (inactive) | 0.011 µM | > 30 µM (inactive) | > 30 µM (inactive) | > 30 µM (inactive) | > 30 µM (inactive) |  |  | > 30 µM (inactive) | > 30 µM (inactive) | > 30 µM (inactive) | > 30 µM (inactive) | > 30 µM (inactive) | > 30 µM (inactive) |  | > 30 µM (inactive)

Next, values leading:

Kd [1] | Kd [2] | Kd [3] | Kd [4] | Kd [5] | Kd [6] | Kd [7] | Kd [8] | Kd [9] | Kd [10] | Kd [11] | Kd [12] | Kd (Myosin-10) | Kd [13] | Kd [14] | Kd [15] | Kd [16] | Kd [17] | Kd [18] | Structure (SMILES)
> 30 µM (inactive) | > 30 µM (inactive) | > 30 µM (inactive) | > 30 µM (inactive) |  |  | > 30 µM (inactive) | > 30 µM (inactive) | > 30 µM (inactive) | > 30 µM (inactive) | > 30 µM (inactive) |  |  |  | > 30 µM (inactive) |  | > 30 µM (inactive) | > 30 µM (inactive) | > 30 µM (inactive) | c1cc(OCCN2CCCCC2)cc(-c2n[nH]c3ccc(-c4nc[nH]n4)cc23)c1 [CC-401]
> 30 µM (inactive) | > 30 µM (inactive) | > 30 µM (inactive) |  | > 30 µM (inactive) |  |  | > 30 µM (inactive) | > 30 µM (inactive) | > 30 µM (inactive) |  | > 30 µM (inactive) | > 30 µM (inactive) | > 30 µM (inactive) |  |  | > 30 µM (inactive) |  | > 30 µM (inactive) | COc1cccc2cc(-c3nc([C@H]4CC[C@H](C(=O)O)CC4)n4ncnc(N)c34)[nH]c12 [OSI-027]
